Assay [1] concerns bromodomain. The assay can be described thus: at least one of the bromodomain cell assays of Example 57. To be noted: at least one of the bromodomain cell assays described in Example 57; read-out: IC50 in at least one of the bromodomain cell assays. The format is cell-based.
The target in assay [2] is BRD4-BD12 (1-477) (Homo sapiens (Human), UniProt O60885). The experiment in a line: Alphascreen binding assay BRD4-BD12. Particulars: BRD4(1 2) H4; read-out: Biochemical activity (IC50 μM) BRD4(1 2) H4. Put shortly: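 First, compound was preincubated 1 h at room temperature with the His-tagged BRD4 protein (BD1 44-164 or tandem BD12 1-477) and acetylated H4 peptide. Next, donor and acceptor beads were added at 7.5 μg/ml final. After 30 min, AlphaScreen emission was recorded.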
Background: Alpha assays give light when donor and acceptor beads are brought close together.

Assay [3] concerns MV-4-11 cells. The experiment in a line: Oncology cell growth assay MV-4-11 (CellTiter Glo). Type of assay: cell-based. To be noted: Homo sapiens, MV4-11, 72 h, read-out: Cell activity (IC50 μM) MV-4-11 3d-Growth. Put shortly: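 MV-4-11 AML cells (MLL-AF4), 3000 per well, exposed to 8-point 1:3 compound titration from 10 μM top concentration (0.2% DMSO) for 72 h. Viability by CellTiter Glo luminescence, normalized to DMSO controls; pIC50 from four-parameter curve fit.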
On the technique in general: ATP-based viability assays read luminescence as a measure of living cells.

Each structure is given as a SMILES string. Like-named read-outs stand apart in the source and are kept apart here.

The values below come from patent US10519177B2, “Heterocyclic compounds and uses thereof” (Plexxikon Inc., priority 2013, dated 2019).

As usually defined, the IC50 is the concentration that gives 50% inhibition.

In the case of `Cc1noc(C)c1-c1cnc2c(-c3ccc(C(=O)O)c(F)c3)cn(CC3CCC(F)(F)CC3)c2c1` [P-0406, 4-[1-[(4,4-difluorocyclohexyl)methyl]-6-(3,5-dimethylisoxazol-4-yl)pyrrolo[3,2-b]pyridin-3-yl]-2-fluoro-benzoic acid], the IC50 in assay [1] was under 10000 nM; in assay [2], under 1 µM; in assay [3], under 1 µM.

Consider `Cc1noc(C)c1-c1cnc2c(-c3ccnc(C4CC4)c3)cn(CC3CCC(F)(F)CC3)c2c1` [P-0407, 4-[3-(2-cyclopropyl-4-pyridyl)-1-[(4,4-difluorocyclohexyl)methyl]pyrrolo[3,2-b]pyridin-6-yl]-3,5-dimethyl-isoxazole], for which the IC50 in assay [1] is under 10000 nM; in assay [2], under 1 µM; in assay [3], under 1 µM.

Take `Cc1noc(C)c1-c1cnc2c(-c3ccc(=O)n(C)c3)cn(CC3CCC(F)(F)CC3)c2c1` [P-0408, 5-[1-[(4,4-difluorocyclohexyl)methyl]-6-(3,5-dimethylisoxazol-4-yl)pyrrolo[3,2-b]pyridin-3-yl]-1-methyl-pyridin-2-one]: the IC50 in assay [1] is under 10000 nM; in assay [2], under 1 µM; in assay [3], under 1 µM.

Regarding `CCn1cc(-c2cn(CC3CCC(F)(F)CC3)c3cc(-c4c(C)noc4C)cnc23)cn1` [P-0409, 4-[1-[(4,4-difluorocyclohexyl)methyl]-3-(1-ethylpyrazol-4-yl)pyrrolo[3,2-b]pyridin-6-yl]-3,5-dimethyl-isoxazole], the half-maximal inhibitory concentration (IC50) in assay [1] was under 10000 nM; in assay [2] it was under 1 µM; in assay [3], under 1 µM.

As for `Cc1noc(C)c1-c1cnc2c(-c3cn(C)nc3C(F)(F)F)cn(CC3CCC(F)(F)CC3)c2c1` [P-0410, 4-[1-[(4,4-difluorocyclohexyl)methyl]-3-[1-methyl-3-(trifluoromethyl)pyrazol-4-yl]pyrrolo[3,2-b]pyridin-6-yl]-3,5-dimethyl-isoxazole], the IC50 is under 10000 nM in assay [1], under 1 µM in assay [2] and under 1 µM in assay [3].

In the case of `Cc1noc(C)c1-c1cnc2c(-c3cccc(CC(=O)O)c3)cn(CC3CCC(F)(F)CC3)c2c1` [P-0411, 2-[3-[1-[(4,4-difluorocyclohexyl)methyl]-6-(3,5-dimethylisoxazol-4-yl)pyrrolo[3,2-b]pyridin-3-yl]phenyl]acetic acid], the results for the IC50 in assay [1], in assay [2] and in assay [3] were under 10000 nM, under 1 µM and under 1 µM, respectively.

Turning to `Cc1noc(C)c1-c1cnc2c(-c3ccc(C4(C(=O)O)CC4)cc3)cn(CC3CCC(F)(F)CC3)c2c1` [P-0412, 1-[4-[1-[(4,4-difluorocyclohexyl)methyl]-6-(3,5-dimethylisoxazol-4-yl)pyrrolo[3,2-b]pyridin-3-yl]phenyl]cyclopropanecarboxylic acid], the IC50 is under 10000 nM in assay [1], under 1 µM in assay [2] and under 1 µM in assay [3].

For `Cc1noc(C)c1-c1cnc2c(-c3ccc(CC(=O)O)cc3)cn(CC3CCC(F)(F)CC3)c2c1` [P-0413, 2-[4-[1-[(4,4-difluorocyclohexyl)methyl]-6-(3,5-dimethylisoxazol-4-yl)pyrrolo[3,2-b]pyridin-3-yl]phenyl]acetic acid], the IC50 in assay [1] is under 10000 nM; in assay [2] it was under 1 µM; in assay [3], under 1 µM.

`Cc1noc(C)c1-c1cnc2c(-c3ccc(F)c(C(=O)O)c3)cn(CC3CCC(F)(F)CC3)c2c1` [P-0414, 5-[1-[(4,4-difluorocyclohexyl)methyl]-6-(3,5-dimethylisoxazol-4-yl)pyrrolo[3,2-b]pyridin-3-yl]-2-fluoro-benzoic acid]: the values for the IC50 in assay [1], in assay [2] and in assay [3] were under 10000 nM, under 1 µM and under 1 µM, respectively.

As to `Cc1ccc(-c2cn(CC3CCC(F)(F)CC3)c3cc(-c4c(C)noc4C)cnc23)cc1C(=O)O` [P-0415, 5-[1-[(4,4-difluorocyclohexyl)methyl]-6-(3,5-dimethylisoxazol-4-yl)pyrrolo[3,2-b]pyridin-3-yl]-2-methyl-benzoic acid], the IC50 was under 10000 nM in assay [1], under 1 µM in assay [2] and under 1 µM in assay [3].

On to `Cc1noc(C)c1-c1cnc2c(-c3ccc(C(=O)O)c(F)c3F)cn(CC3CCC(F)(F)CC3)c2c1` [P-0416, 4-[1-[(4,4-difluorocyclohexyl)methyl]-6-(3,5-dimethylisoxazol-4-yl)pyrrolo[3,2-b]pyridin-3-yl]-2,3-difluoro-benzoic acid], for which the IC50 in assay [1] was under 10000 nM; in assay [2], under 1 µM; in assay [3] it was under 1 µM.

On to `Cc1noc(C)c1-c1cnc2c(-c3ccc(C(=O)O)cc3F)cn(CC3CCC(F)(F)CC3)c2c1` [P-0417, 4-[1-[(4,4-difluorocyclohexyl)methyl]-6-(3,5-dimethylisoxazol-4-yl)pyrrolo[3,2-b]pyridin-3-yl]-3-fluoro-benzoic acid], for which the IC50 was under 10000 nM in assay [1], under 1 µM in assay [2] and under 1 µM in assay [3].

Regarding `COC(=O)c1ccc(-c2cn(CC3CCC(F)(F)CC3)c3cc(-c4c(C)noc4C)cnc23)cn1` [P-0418, methyl 5-[1-[(4,4-difluorocyclohexyl)methyl]-6-(3,5-dimethylisoxazol-4-yl)pyrrolo[3,2-b]pyridin-3-yl]pyridine-2-carboxylate], the IC50 in assay [1] is under 10000 nM; in assay [2], under 1 µM; in assay [3], under 1 µM.

On to `Cc1nnn(C)c1-c1cnc2c(-c3cnn(C(F)F)c3)cn(CC3(F)CCC(F)(F)CC3)c2c1` [P-0419, 3-[1-(difluoromethyl)pyrazol-4-yl]-6-(3,5-dimethyltriazol-4-yl)-1-[(1,4,4-trifluorocyclohexyl)methyl]pyrrolo[3,2-b]pyridine], for which the IC50 in assay [1] is under 10000 nM; in assay [2] it was under 1 µM; in assay [3] it was under 1 µM.

Consider `Cc1nnc(C)n1-c1cnc2c(-c3ccc(C(=O)O)cc3)cn(CC3CCC(F)(F)CC3)c2c1` [P-0420, 4-[1-[(4,4-difluorocyclohexyl)methyl]-6-(3,5-dimethyl-1,2,4-triazol-4-yl)pyrrolo[3,2-b]pyridin-3-yl]benzoic acid], for which the IC50 in assay [1] was under 10000 nM; in assay [2], under 1 µM; in assay [3], 10 to 200 µM.

For `Cc1nnn(C)c1-c1cnc2c(-c3cnn(C)c3)cn(CC3(F)CCC(F)(F)CC3)c2c1` [P-0424, 6-(3,5-dimethyltriazol-4-yl)-3-(1-methylpyrazol-4-yl)-1-[(1,4,4-trifluorocyclohexyl)methyl]pyrrolo[3,2-b]pyridine], the IC50 was under 10000 nM in assay [1], under 1 µM in assay [2] and under 1 µM in assay [3].

`CCn1cc(-c2cn(CC3CCC(F)(F)CC3)c3cc(-c4c(C)nnn4C)cnc23)cn1` [P-0427, 1-[(4,4-difluorocyclohexyl)methyl]-6-(3,5-dimethyltriazol-4-yl)-3-(1-ethylpyrazol-4-yl)pyrrolo[3,2-b]pyridine]: the IC50 in assay [1] is under 10000 nM; in assay [2], under 1 µM; in assay [3] (MV-4-11, 3d growth), under 1 µM.

Consider `Cc1noc(C)c1-c1cnc2c(c1)c(Cc1ccccc1Cl)cn2-c1ccc(C(=O)O)cn1` [P-0428, 6-[3-[(2-chlorophenyl)methyl]-5-(3,5-dimethylisoxazol-4-yl)pyrrolo[2,3-b]pyridin-1-yl]pyridine-3-carboxylic acid], for which the IC50 is under 10000 nM in assay [1]; under 1 µM in assay [2]; 1 to 10 µM in assay [3] (MV-4-11, 3d growth).
